Data reported in patent publication US20220106304A1, “Transcription Factor BRN2 Inhibitory Compounds as Therapeutics and Methods for Their Use” (The University of British Columbia, priority 2018, published 2022).

Tests used:
[1] = Liver microsome metabolic stability, MLM; type: in vitro ADME; conditions: MLM (single value or second of two), 1 μM compound, 0.25 mg/mL protein; for Met Stab % (60 mins HLM/MLM): percent remaining at 60 min, 1 mM NADPH; for half-life at 1 µM: mouse, liver microsomes, pH 7.4, read-out: T1/2 in (mins HLM/MLM)
In short: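 Compound (1 μM) incubated at 37 °C with mouse or human liver microsomes (0.25 mg/mL) in 50 mM phosphate pH 7.4 with 1 mM NADPH; samples quenched at 0–60 min. Parent loss by LC-MS/MS gives t½ (0.693/k) and CL'int scaled by 45 mg protein/g liver.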

BRN2 = target: T1, BRN2 (Homo sapiens, UniProt P20265); assay: BLI binding
T1 sequence (P20265 1-443): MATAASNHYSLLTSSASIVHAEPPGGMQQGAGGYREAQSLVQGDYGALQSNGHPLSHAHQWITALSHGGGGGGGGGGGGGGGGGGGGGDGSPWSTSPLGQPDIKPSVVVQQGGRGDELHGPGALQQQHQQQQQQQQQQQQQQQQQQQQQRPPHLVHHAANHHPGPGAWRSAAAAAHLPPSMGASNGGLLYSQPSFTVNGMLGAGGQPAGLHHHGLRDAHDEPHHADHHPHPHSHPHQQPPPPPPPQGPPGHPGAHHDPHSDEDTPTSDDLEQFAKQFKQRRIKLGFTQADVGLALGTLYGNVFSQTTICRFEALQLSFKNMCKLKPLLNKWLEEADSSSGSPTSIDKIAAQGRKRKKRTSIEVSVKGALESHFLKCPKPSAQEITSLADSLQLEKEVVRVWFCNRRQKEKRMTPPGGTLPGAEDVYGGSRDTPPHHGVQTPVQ

| Structure (SMILES) | Met Stab % (60 mins HLM/MLM) [1] [%] | half-life at 1 µM [1] [min] | BLI binding (BRN2) |
| --- | --- | --- | --- |
| FC(F)(F)c1ccc2cc(-c3csc(-c4ccco4)n3)oc2c1 [VPC-18-51, 2-(Furan-2-yl)-4-(6-(trifluoromethyl)benzofuran-2-yl)thiazole] | 7 | 16 | binding |
| Clc1cc2cc(-c3csc(-c4ccc[nH]4)n3)oc2cc1Cl [VPC-18-142] | 17 | 26 | binding |
